“Also recorded” adds a separate entry of the source. Where no end group is shown, it is not given here.
Key:
[1] = molecular target: T1, refolded pepsin (Rp) (Sus scrofa, UniProt P00791); assay: PS-catalyzed folding of Rp to Np (recovery of Np activity); format: biochemical, porcine; conditions: for k f (PS-catalyzed folding rate constant): 1 µM Rp, 30 µM PS, pH 5.3 (20 mM acetic acid/NaOH, 100 mM NaCl), Np activity assayed at pH 1.2, 25°C with KPAEFF(NO2)AL, monoexponential fit, mean ± SD from non-linear curve fitting, 3-5 measurements; for k f (PS-catalyzed folding rate constant) / ΔΔG^‡ (change in folding activation energy upon mutation): 15°C; for ΔΔG^‡ (change in folding activation energy upon mutation): from k f, pH 5.3, relative to WT, ± SD by propagation of errors
T1 construct: Only the R13 and K36 side-chains of the PS form hydrogen bonds with the mature pepsin domain; purchased Sigma (St. Louis, MO, USA)
Procedure: PS-catalyzed folding of Rp to Np
PS-catalyzed folding was carried out by combining 1 µM Rp and 30 µM PS, in a volume of 100 µl, at pH 5.3 (20 mM acetic acid/NaOH with 100 mM NaCl) and 15°C. Aliquots were taken at several time intervals, diluted 20-fold in 50 mM phosphoric acid buffer, pH 1.2, incubated for 5 min at 25°C and assayed for Np activity using the KPAEFF(NO2)AL substrate. The recovery of Np activity with time, t, was fit with a monoexponential function (y = a – bexp(–k f t)) to obtain the PS-catalyzed folding rate constant, k f. Under these conditions, PS binding to Rp reached equilibrium within the dead-time of mixing (<8 sec), as judged by Trp-fluorescence.
(§1) The change in stability of the folding transition state upon mutation was calculated using [drawing 3] (3) where k f, wt and k f, mut are the PS-catalyzed folding rate constants of the wild-type and mutant PS peptides. The change in equilibrium stability of PS-Np relative to PS-Rp upon mutation of the PS (ΔΔGPS(Np-Rp)) was determined as the difference between the changes in binding energies, using [drawing 4] (4) and [drawing 5] (5)
Temperature dependence of PS-catalyzed folding
PS-catalyzed folding could be measured only up to 15 °C for PSwt, as the reaction was too fast at higher temperatures. […] Given the linear temperature dependence it could be reasonably assumed that changes in activation energies (mutant – wild-type) would be unchanged from 15 °C to 20 °C, and so could be compared directly with changes in binding energies (wild-type – mutant) that were determined at 20 °C.

[2] = molecular target: T1, refolded pepsin (Rp); assay: PS binding to Rp (Trp-fluorescence); set-up: species or system porcine; conditions: for Kd: 0.6-1.2 µM Rp, 20 mM acetic acid/NaOH pH 5.3 without added NaCl, ≥10 min, Trp-fluorescence ex 295 nm, em 315 nm, mean ± SD from non-linear curve fitting, 3-5 measurements, read-out: K d (PS-Rp dissociation constant); for Kd / ΔΔGPS-Rp (change in PS-Rp binding energy upon mutation): 20°C; for ΔΔGPS-Rp (change in PS-Rp binding energy upon mutation): from K d, pH 5.3, relative to WT, ± SD by propagation of errors; for effect on affinity for Rp / PS-Rp stability (in words): pH 5.3, 20°C, compared with PSwt
Procedure: The change in intrinsic tryptophan fluorescence of pepsin was used to measure the binding of PS to Rp and to determine the dissociation constant, K d. Rp solutions were diluted to between 0.6 and 1.2 µM in 20 mM acetic acid/NaOH buffer, pH 5.3, and mixed with various amounts of PS. After incubating the samples at 20°C for ≥10 minutes, the intrinsic tryptophan fluorescence was measured using a PTI spectrofluorophotometer (Photon Technology International, Inc., Birmingham NJ, USA), with excitation at 295 nm and emission measured at 315 nm. The change in fluorescence, ΔF i, at each PS concentration, [PS], was normalized relative to the maximum change, ΔF max, and fit according to [drawing 1] (1) where [Rp] is the total concentration of pepsin.
PS binding to Rp was measured in buffer without added 100 mM NaCl in order to obtain more accurate measurements of K d, owing to a larger change in signal in the absence of salt. Additionally, without added 100 mM NaCl it was possible to isolate the PS-Rp binding step from the catalyzed folding step thereby improving the determination of K d.
as §1
(§2) Here, ΔΔGbind refers to either ΔΔGPS-Rp, determined from K d values, or ΔΔGPS-Np, determined from K i values. The Φ-value for each mutant corresponds to eq 3 divided by eq 5. Additional details are included in the supporting information section (Text S1).

[3] = molecular target: T2, native pepsin (Np) (Sus scrofa, UniProt P00791); assay: PS binding to Np (competitive inhibition of KPAEFF(NO2)AL hydrolysis); format: biochemical, porcine; conditions: for Ki: 10 nM Np, 20 mM acetic acid/NaOH pH 5.3, 100 mM NaCl, 5 min incubation, substrate KPAEFF(NO2)AL 0.1 mM, absorbance 300 nm, competitive model, mean ± SD from non-linear curve fitting, 3-5 measurements, read-out: K i (PS-Np inhibition constant); for Ki / ΔΔGPS-Np (change in PS-Np binding energy upon mutation): 20°C; for ΔΔGPS-Np (change in PS-Np binding energy upon mutation): from K i, pH 5.3, relative to WT, ± SD by propagation of errors; for effect on affinity for Np / PS-Np stability (in words): pH 5.3, 20°C, PS inhibition of Np, compared with PSwt
T2 construct: Only the R13 and K36 side-chains of the PS form hydrogen bonds with the mature pepsin domain; purchased Sigma (St. Louis, MO, USA)
Procedure: PS binding to Np was determined by using the PS as a competitive inhibitor and measuring the inhibition constant, K i. Hydrolysis of the KPAEFF(NO2)AL substrate was measured by following the decrease in absorbance at 300 nm using a Biochrom Ultrospec 3100pro UV-Vis spectrophotometer (Biochrom Ltd., Cambridge, England) in 20 mM acetic acid/NaOH buffer, pH 5.3, containing 100 mM NaCl. Np samples were diluted to 10 nM and incubated with PS for 5 min at 20°C and assayed for activity. The reaction rates were normalized to the activity in the absence of PS and the data fit using the competitive inhibitor form of the Michaelis-Menten equation [drawing 2] (2) where v0 is the initial reaction rate, V max is the maximum reaction rate, [S] is the substrate concentration (fixed at 0.1 mM), [I] is the inhibitor concentration, and K M is the Michaelis constant.
as §1, §2

T2 sequence (P00791 60-385): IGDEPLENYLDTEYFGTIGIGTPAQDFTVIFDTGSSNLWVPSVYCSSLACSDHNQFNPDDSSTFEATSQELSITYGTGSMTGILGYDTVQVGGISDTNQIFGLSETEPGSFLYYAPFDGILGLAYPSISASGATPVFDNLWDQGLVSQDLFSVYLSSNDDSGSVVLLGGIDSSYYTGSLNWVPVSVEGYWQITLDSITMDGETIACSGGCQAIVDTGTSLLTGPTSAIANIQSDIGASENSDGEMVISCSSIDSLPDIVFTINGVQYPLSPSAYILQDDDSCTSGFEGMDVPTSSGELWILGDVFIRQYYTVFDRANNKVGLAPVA
T1 sequence (P00791 60-385): as above

| Sequence | k f (PS-catalyzed folding rate constant) [1] [min⁻¹] | ΔΔG^‡ (change in folding activation energy upon mutation) [1] [kcal/mol] | Kd [2] [µM] | ΔΔGPS-Rp (change in PS-Rp binding energy upon mutation) [2] [kcal/mol] | effect on affinity for Rp / PS-Rp stability (in words) [2] | Ki [3] [µM] | ΔΔGPS-Np (change in PS-Np binding energy upon mutation) [3] [kcal/mol] | effect on affinity for Np / PS-Np stability (in words) [3] | effect on rate of PS-catalyzed folding (in words) ([1]; pH 5.3, 15°C, compared with PSwt) |
| --- | --- | --- | --- | --- | --- | --- | --- | --- | --- |
| LVKAPLVRKKSLRQNLIKNGKLKDFLKTHKHNPASKYFPEAAAL [V4A] | 0.27 ± 0.03 | 0.94 ± 0.15 | 1.19 ± 0.23 | 0.79 ± 0.12 | relatively large destabilizing effect on PS-Rp | 0.0509 ± 0.0069 | -0.14 ± 0.13 | very small stabilizing effect on PS-Np; also recorded: stabilizing to the native state |  |
| LVKVPLVRKKSLRQNLAKNGKLKDFLKTHKHNPASKYFPEAAAL [I17A] | 1.40 ± 0.26 | 0.01 ± 0.18 | 0.21 ± 0.09 | -0.21 ± 0.24 | negligible effect on PS-Rp binding; also recorded: negligible effect on PS-Rp and PS-TS stability | 0.394 ± 0.0651 | 1.05 ± 0.14 | largest reduction in affinities for Np; also recorded: one of the most destabilizing mutations to the PS-Np complex | no effect |
| LVKVPLVRKKSLRQNLIKNGKLKDFLKTHKHNPASKYFPEAAAL [WT] | 1.42 ± 0.34 |  | 0.31 ± 0.03 |  |  | 0.0648 ± 0.0114 |  |  |  |

Source: publication PMC4077824, “Conserved Prosegment Residues Stabilize a Late-Stage Folding Transition State of Pepsin Independently of Ground States” (PLoS ONE, 2014)
